Patent US10195170B2, “Methods for inhibiting expression of ASC, expression of NLRP3, and/or formation of NLRP3 inflammasome complex using diacerein or its analogs” (TWi Biotechnology, Inc., priority 2015, dated 2019)

What was measured:
NLRP3 = assay: Immunofluorescence staining (fluorescence confocal assay) of NLRP3 in MSU-stimulated THP-1 cells; type: cell-based, human; conditions: PMA-primed THP-1 cells, then 100 μg/mL MSU for 6 hours
Procedure: (§1) The 20 mg of rhein powder was dissolved in 1 mL 100% dimethyl sulfoxide (DMSO), sterilized by 0.22 μm pore filter membranes, and stored at −20° C. before use. The monosodium urate (MSU) crystal (10 mg/mL) was prepared in sterilized phosphate buffered saline (PBS). The adenosine […] disodium salt (ATP) was dissolved in ddH2O and sterilized by 0.22 μm pore filter membranes. THP-1, human acute monocytic leukemia cell line (ATCC® TIB-202), were suspended in RPMI-1640 medium (GIBCO, Life Technologies, Grand Island, USA) supplemented with 10% fetal bovine serum and 1% of antibiotics (penicillin-streptomycin-amphotericin B) conditioned media. For macrophage-like differentiation, THP-1 cells were primed by 0.1 μM phorbol myristyl acetate (PMA) for 24 hours. […] For cell viability, PMA-primed THP-1 cells were detected in the presence or absence of rhein incubation for 24 hours by the Cell Counting Kit-8 (CCK-8 assay, Sigma-Aldrich, St Louis, USA). […] Fluorescence confocal assay was performed to detect the human ASC and NLRP3 expression in paraformaldehyde-fixed THP-1 cells after treatment. […] The stained areas of ASC (green) and NLRP3 (red) staining distributions were quantified and analyzed by Metamorph analyzer. […] P-value was determined by the two-tailed unpaired t-test.

ASC = assay: Immunofluorescence staining (fluorescence confocal assay) of ASC in MSU-stimulated THP-1 cells; type: cell-based, human; conditions: PMA-primed THP-1 cells, then 100 μg/mL MSU for 6 hours
Procedure: as §1

Compound: O=C(O)c1cc(O)c2c(c1)C(=O)c1cccc(O)c1C2=O [rhein, 9, 10-dihydro-4,5-dihydroxy-9, 10-dioxo-2-anthracene carboxylic acid]
- inhibition of NLRP3 levels, average intensity of area/cell (NLRP3; rhein 5 μg/mL overnight (lower dose), P=0.014): about 62.5%
- inhibition of NLRP3 levels, average intensity of area/cell (NLRP3; rhein 10 μg/mL overnight (higher dose), P=0.0012): ~84.1%
- decrease of staining of ASC sections, average intensity of area/cell (ASC; rhein 5 μg/mL overnight (lower dose), P=0.0011): about 64.0%
- decrease of staining of ASC sections, average intensity of area/cell (ASC; rhein 10 μg/mL overnight (higher dose), P=0.0022): ~79.0%
